According to patent US7342137B1, “Cyclohexenone compounds from Antrodia camphorata and application thereof” (Golden Biotechnology Corporation, priority 2007, dated 2008):

Experiments:
[1] = tested on: human hepatic cancer cells, Hep 3B; test: In vitro Lovastatin add-on study (MTT), Hep 3B; format: cell-based; details: 0.0043 μg/ml Lovastatin 72 hours, 0 μg/ml formula 2
Experimental: (§1) The experiment was also carried out according to NCI anti-cancer drug screen in vitro model. The human hepatic cancer cells, Hep 3B and Hep G2 and MDA-MB-231 were separately cultivated in media containing fetal calf serum for 24 hours. The proliferated cells were washed once with PBS, then treated with 1× trypsin-EDTA and centrifuged at 1200 rpm for 5 minutes. The supernatant was discarded and the cell pellet was resuspended in 10 ml of fresh culture medium by gently shaking. The Hep 3B cells were treated with 0.0043 μg/ml of Lovastatin for 72 hours and Hep G2 cells were treated with 0.0017 μg/ml of Taxol for 72 hours before placing in a 96-well plate. 4-hydroxy-2,3-dimethoxy-6-methyl-5(3,7,11-trimethyl-dodeca-2,6,10-trienyl)-cyclohex-2-enone obtained from example 1 were added respectively into each of the 96 wells at the following concentrations: 0 μg/ml (the control group); 30, 10, 3, 1, 0.3, 0.1 and 0.03 μg/ml (the experiment group). The cells were incubated at 37° C. in a 5% CO2 incubator for 48 hours. MTT was added in a concentration of 2.5 mg/ml into each well in dark and reacted for 4 hours, followed by the addition of 100 μl of lysis buffer to stop the reaction. The plates were read on an ELISA reader at wavelength of 570 nm to determine the survival rates.

[2] = tested on: human breast-cancer cells, MDA-MB-231; test: In vitro Taxol add-on study (MTT), MDA-MB-231; format: cell-based; details: 0.0017 μg/ml Taxol 72 hours, 0 μg/ml formula 2
Experimental: as §1, with “breast-cancer” for “hepatic cancer”, “MCF-7” for “Hep 3B and Hep G2”, “The” for “The Hep 3B”, “placed” for “treated with 0.0043 μg/ml of Lovastatin for 72 hours and Hep G2 cells were treated with 0.0017 μg/ml of Taxol for 72 hours before placing”, “plate after 0.0017 μg/ml Taxol was added and treated for 72 hours.” for “plate.”, “terminate” for “stop”

[3] = tested on: human prostate cancer cells, LNCaP; test: In vitro Taxol add-on study (MTT), prostate cancer cells LNCaP; format: cell-based; details: LNCaP (0.0017 μg/ml Taxol) as printed in Table 6; 0 μg/ml formula 2
Experimental: as §1, with “human prostate” for “human hepatic”, “cells, LNCaP” for “cells, Hep 3B”, “and DU-145” for “and Hep G2 and MDA-MB-231”, “The LNCaP cells were treated with 0.0017 μg/ml of Taxol for 72 hours and DU-145” for “The Hep 3B”, “0.0043” for “0.0043 μg/ml of Lovastatin for 72 hours and Hep G2 cells were treated with 0.0017”

[4] = tested on: human breast-cancer cells, MCF-7; test: In vitro Taxol add-on study (MTT), MCF-7; format: cell-based; details: 0.0017 μg/ml Taxol 72 hours, 0 μg/ml formula 2
Experimental: as §1, with “breast-cancer” for “hepatic cancer”, “MCF-7” for “Hep 3B and Hep G2”, “The” for “The Hep 3B”, “placed” for “treated with 0.0043 μg/ml of Lovastatin for 72 hours and Hep G2 cells were treated with 0.0017 μg/ml of Taxol for 72 hours before placing”, “plate after 0.0017 μg/ml Taxol was added and treated for 72 hours.” for “plate.”, “terminate” for “stop”

[5] = tested on: human prostate cancer cells, DU-145; test: In vitro Taxol add-on study (MTT), prostate cancer cells DU-145; format: cell-based; details: DU-145 (0.0043 μg/ml Taxol) as printed in Table 6; 0 μg/ml formula 2
Experimental: as §1, with “human prostate” for “human hepatic”, “cells, LNCaP” for “cells, Hep 3B”, “and DU-145” for “and Hep G2 and MDA-MB-231”, “The LNCaP cells were treated with 0.0017 μg/ml of Taxol for 72 hours and DU-145” for “The Hep 3B”, “0.0043” for “0.0043 μg/ml of Lovastatin for 72 hours and Hep G2 cells were treated with 0.0017”

[6] = tested on: human hepatic cancer cells, Hep G2; test: In vitro Taxol add-on study (MTT), Hep G2; format: cell-based; details: 0.0017 μg/ml Taxol 72 hours, 0 μg/ml formula 2
Experimental: as §1

[7] = tested on: Human low density lipoprotein (LDL); test: In vitro antioxidant activity study (Cu2+-induced LDL oxidation, diene formation); format: biochemical; details: for Tlag: LDL oxidised with 5 μM CuSO4; for Capacity values: capacity value 1 = 2 μM Trolox; for ΔTlag: difference between Tlag and Tlag0 (H2O)
Experimental: Human low density lipoprotein (LDL) oxidated with copper ion (Cu^2+) has been widely employed to assess antioxidant activities of samples to be assayed. Antioxidant activity of a sample is determined by the diene contents of LDL after oxidation and expressed in Trolox equivalents by using a standard curve calculated from the water-soluble vitamin E analogue Trolox standards (the antioxidant capacity value of 1 is expressed in terms of 2 μM of Trolox).
The following solutions were prepared firstly: double distilled water (the negative control group), 5 mM sodium phosphate buffer (SPB), 1 μM and 2 μM Trolox solution (the positive control group), and 40 μg/ml 4-hydroxy-2,3-dimethoxy-6-methyl-5(3,7,11-trimethyl-dodeca-2,6,10-trienyl)-cyclohex-2-enone isolated from example 1. The concentration of LDL cholesterol (LDL-C) was determined using enzyme reaction method, which was diluted to 0.1-0.25 mg/ml with 5 mM SPB. One hundred μl of the LDL was added into each well of a 96-well quartz plate, followed by addition of the abovementioned Trolox and the isolated compound from example 1. Standardized oxidizing agent CuSO4 was supplemented to induce oxidation at a final concentration of 5 μM in each 250 μl well. The plate was read on an ELISA reader at wavelength of 232 nm at 37 °C for 12 hours. The sampling time was 15 min.

SMILES: CC[C@H](C)C(=O)O[C@H]1C[C@@H](C)C=C2C=C[C@H](C)[C@H](CC[C@@H]3C[C@@H](O)CC(=O)O3)[C@H]21 [Lovastatin, reference compound]
- Cell survival rate (%) [1]: 61 ± 3%

SMILES: CC(=O)O[C@H]1C(=O)[C@@]2(C)[C@H]([C@H](OC(=O)c3ccccc3)[C@]3(O)C[C@H](OC(=O)[C@H](O)[C@@H](NC(=O)c4ccccc4)c4ccccc4)C(C)=C1C3(C)C)[C@]1(OC(C)=O)CO[C@@H]1C[C@@H]2O [Taxol, reference compound]
- Cell survival rate (%) [2]: 76 ± 3%
- Cell survival rate (%) [3]: 56 ± 3%
- Cell survival rate (%) [4]: 65 ± 1%
- Cell survival rate (%) [5]: 70 ± 2%
- Cell survival rate (%) [6]: 81 ± 2%

SMILES: Cc1c(C)c2c(c(C)c1O)CCC(C)(C(=O)O)O2 (stereo not drawn) [Trolox]
- Tlag ([7]; 1 μM Trolox): 266 min
- Capacity values ([7]; 1 μM Trolox): 0.48
- ΔTlag ([7]; 1 μM Trolox): 81 min
- Tlag ([7]; 2 μM Trolox): 344 min
- Capacity values ([7]; 2 μM Trolox): 1.00
- ΔTlag ([7]; 2 μM Trolox): 159 min
